Assay results as given in the METLIN SMRT retention time set (Domingo-Almenara et al. 2019).

Test: gradient 5% acetonitrile 3 min, to 50% in 2 min, to 85% in 15 min, held 3 min, 100 µL/min
Details: column: Zorbax Extend-C18 2.1 x 50 mm; eluents: water / acetonitrile, 0.1% formic acid
How it was run: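 Data were gathered over 3 months by HPLC coupled to a quadrupole time-of-flight mass spectrometer, operated in positive and negative ionization mode. Mixtures of ~100 pure standards ran on a Zorbax Extend-C18 column (2.1 × 50 mm, 1.8 μm) at 100 μL/min, with water and acetonitrile each containing 0.1% formic acid and dead and dwell volumes of 40 μL and 900 μL. Retention time was read from adduct peaks picked by computer and checked manually.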

| Structure (SMILES) | RP-LC retention time |
| --- | --- |
| O=C(NCc1ccccc1)C1Cc2ccccc2CN1S(=O)(=O)c1ccccc1 (configuration not stated) | 981 s |
| C=CCN1C(=O)COc2ccc(-c3nc(NC(=O)Cc4ccccc4)sc3C)cc21 | 1000 s |
| CCn1cc(C(=O)NCc2ccc(Br)cc2)c2cccnc21 | 836 s |
| Cc1nc(-c2ccncc2)nc2c1CCC(=O)N2C1CCCCC1 | 851 s |
| CCn1ccc(C(=O)Nc2ccc3c(c2)Sc2ncccc2C(=O)N3C)n1 | 698 s |
| Cc1nnc(-c2cccnc2N2CCN(C(=O)c3ccsc3)CC2)o1 | 675 s |
| Clc1ccc(Nc2c(-c3ccc(Cl)cc3)nc3cnccn23)cc1 | 1040 s |
| O=C(Cn1nc2c3cc(-c4ccccc4)nn3ccn2c1=O)Nc1ccccc1Cl | 902 s |
| COc1ccc(N2CC(c3nc(-c4ccc5c(c4)OCO5)no3)CC2=O)cc1Cl (configuration not stated) | 966 s |
| N#Cc1ccc(C(=O)NC2CCN(C(=O)C3CC3)C2)cc1 (configuration not stated) | 629 s |
| O=C1Nc2ccccc2NC12CCOCC2 | 631 s |
| Cc1ccc(CNC(=O)c2csc(-c3ccc(N4CCCC4)nc3)n2)o1 | 679 s |
| O=C(Nc1ccnc2ccc(Cl)cc12)c1ccc(S(=O)(=O)NC2CC2)cc1 | 656 s |
| Cc1noc(CNC(=O)c2cc(-c3cccs3)[nH]n2)n1 | 641 s |
| O=C(CSc1ncc(CO)n1Cc1ccccc1)N1CCCc2ccccc21 | 684 s |
| CCN1CCn2cc(S(=O)(=O)Nc3cc(F)ccc3C)cc2C1=O | 725 s |
| CCc1ccccc1NC(=O)Cn1ncc2c(c1=O)N(C1CC1)C(=O)CS2 | 718 s |
| COc1ccc(C2CC(=O)N(c3ccccc3)C(=O)C2)cc1 | 842 s |
| Cc1cccc(N2CCN(c3ccc4cc(S(=O)(=O)N5CCCCC5C)ccc4n3)CC2)c1C (configuration not stated) | 1330 s |

| Structure (SMILES) | RP-LC retention time |
| --- | --- |
| Cc1nnc2c(NC(=O)Cc3cccc(C(F)(F)F)c3)cccn12 | 785 s |
| CC(C)C(=O)NC(c1ccc(F)cc1)c1nnc(-c2ccccc2)o1 (configuration not stated) | 856 s |
| Cc1sc(NC(=O)Cn2c(=O)sc3ccccc32)nc1-c1ccccc1 | 980 s |
| CCOc1ccc2nc(C(=O)N3CCN(c4ccc(Cl)cc4)CC3)cn2n1 | 1000 s |
| CCN(CC)S(=O)(=O)c1ccc2c(c1)N(CC(=O)NCc1cccs1)C(=O)C1CCCCN21 (configuration not stated) | 949 s |
| COc1ccccc1NC(=O)Cn1nc2n(c1=O)CCCCC2 | 709 s |
| CN1C(=O)C(C)(C(=O)Nc2ccc(F)cc2)Oc2cccnc21 (configuration not stated) | 847 s |
| COc1ccccc1NC(=O)C1CCN(S(=O)(=O)c2ccc3[nH]c(=O)ccc3c2)CC1 | 734 s |
| CSc1cccc(NC(=O)C2CCN(c3cnc4nc(C)c(C)nc4c3)CC2)c1 | 758 s |
| CCc1ccc(NC(=O)C2CCCN2S(=O)(=O)c2cc3c(cc2C)NC(=O)C(C)O3)cc1 (configuration not stated) | 842 s |
| CCn1cc(C(=O)Nc2ccc(F)c(C)c2)c(S(=O)(=O)N2CCSCC2)n1 | 1040 s |
| Cn1nc(-c2ccsc2)nc1C1CN(S(=O)(=O)c2cccnc2)C1 | 712 s |
| O=C(CSc1nnc(NC(=O)c2c(F)cccc2Cl)s1)c1ccccc1 | 888 s |
| C=Cc1ccc(Cn2ccn(-c3cccc(Cl)c3C)c(=O)c2=O)cc1 | 843 s |
| O=C(CSc1nc2ccccc2o1)OCc1cc(-c2ccc3c(c2)OCCO3)on1 | 1000 s |
| CC(=O)Nc1ccc(CC(=O)N2CCCC(c3nc(-c4ccc(NC(C)=O)cc4)no3)C2)cc1 (configuration not stated) | 675 s |
| Cc1nn(C(C)C(=O)N2CCCCCC2)c(=O)c2c(-n3cccc3)n(-c3ccccc3)nc12 (configuration not stated) | 1040 s |
| COc1ccc(OCC(=O)N2CCCC2c2nc(-c3ccc(OC)cc3)no2)cc1 (configuration not stated) | 934 s |
